Results on one compound are retold here after PMC9468151, “Identification of a binding site on soluble RANKL that can be targeted to inhibit soluble RANK-RANKL interactions and treat osteoporosis” (Nature Communications, 2022).

For the experiment, the system named is sRANKL induced osteoclast differentiation. Briefly: In vitro anti-osteoclastogenesis activity determination (TRAP staining). The conditions noted are these: BMMs, M-CSF + 100 ng/mL sRANKL, 5 days, TRAP staining. Type of experiment: cell-based, mouse. On the procedure: Mouse osteoclasts were cultured according to the previously reported protocols. BMMs were plated in 96-well plates at a density of 6 × 10^3 cells/well with complete medium containing 10 ng/mL M-CSF. The following day, cells were then stimulated with 100 ng/mL sRANKL in the presence or absence of compounds with different concentrations every 2 days until osteoclasts formed. In order to calculate IC50, we set 9 concentrations for each compound and untreated and non-sRANKL unstimulating group as controls, each with triplicated repeated wells. After 5 days, cells were fixed with 4% paraformaldehyde and then applied TRAP-staining to identify osteoclasts by using the TRAP-staining kit. Osteoclasts number (OC No.) in each well was counted and the percentage of inhibition ratio was calculated as follows:1 OCinhibitoryratio%=100−OCNo.treated−OCNo.unstimulating/OCNo.untreated−OCNo.unstimulating×100%
The dosages and their correspondent osteoclastogenesis inhibitory activity curve and IC50 value were conducted by using Nonlinear regression (curve fit) analytic procedure in GraphPad Prism 8. Photographs of individual wells were taken using Leica microscope.

Entries after “also recorded” stand apart in the source; their conditions may differ.

On to `CCOC(=O)c1sc(NC(=O)C(=NNc2cc(C(=O)O)ccc2C(=O)O)C(C)=O)nc1C` [S3-04], for which the “OC IC50 (anti-osteoclastogenesis activity)” value is on record as “Inactive; also recorded: lose osetoclastogenesis inhibitory activities”.
